Assays:
[1] = test system: MDA-MB231 breast cancer cell line; assay: MTT cell viability assay (IC50); type: cell-based; conditions: Homo sapiens, MDA-MB-231; MDA-MB231 cells, single dose of treatment, 10^−9 to 10^−4 M, 570 nm absorbance, FIG. 1; read-out: IC50 (half-maximal inhibitory concentration)
Method: HCT 116 colon cancer and MDA-MB231 breast cancer cell lines are used in cell culture experiments.
Cells were treated with high-glucose DMEM medium (Biosera) supplemented with 10% FBS (Gibco) and 1× penicillin/streptomycin (Multicell). The assay was designed to contain 10,000 cells for each well of 24-well cell culture plates before being treated with inhibitors.
Compound of formula I was dissolved with DMSO as 20 mM stock. 24 hours later, the solution was diluted in DMEM with 10% FBS and final concentration of vehicle DMSO was 0.5% at maximum. Therefore, the vehicle group included 0.5% DMSO concentration in experiments. Intensive cultivation of cells causes a decrease in proliferation capacity.
The MTT cell viability assay was used to detect values of half-maximal inhibitory concentration (IC50). Different concentrations of compound of formula I ranging between 10^−9 to 10^−4 M were tested on MDA-MB231 cell lines with single dose of treatment. 570 nm absorbance values were recorded and IC50 values were calculated by dose response-inhibition curves and nonlinear regression analysis on Graphpad Prism 8 software. IC50 value of compound of formula I was determined to be […] (FIG. 1).

[2] = target: MDM2 protein (Homo sapiens, UniProt Q00987); conditions: state of the art statement; cited from earlier work
Chain of MDM2 protein (Q00987 whole entry, species assumed): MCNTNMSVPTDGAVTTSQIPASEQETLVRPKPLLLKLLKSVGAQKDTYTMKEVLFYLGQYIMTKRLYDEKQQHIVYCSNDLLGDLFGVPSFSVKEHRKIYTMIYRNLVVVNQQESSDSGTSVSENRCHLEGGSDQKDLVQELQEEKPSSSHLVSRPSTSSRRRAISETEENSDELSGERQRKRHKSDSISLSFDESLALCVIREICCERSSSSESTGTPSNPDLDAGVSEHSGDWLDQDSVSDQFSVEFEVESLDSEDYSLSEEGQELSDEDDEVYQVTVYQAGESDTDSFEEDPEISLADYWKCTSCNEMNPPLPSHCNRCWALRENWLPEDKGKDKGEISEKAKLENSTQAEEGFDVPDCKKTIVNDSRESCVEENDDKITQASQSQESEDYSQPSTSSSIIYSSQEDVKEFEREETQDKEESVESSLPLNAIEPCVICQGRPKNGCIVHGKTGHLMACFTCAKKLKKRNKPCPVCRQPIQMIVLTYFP

Molecule	IC50 [1]	binding affinity to MDM2 relative to a natural p53 peptide [2]
O=C(CCCc1nc2ccccc2c(=O)[nH]1)NC(Cc1c[nH]c2ccccc12)C(=O)O (centres unmarked) [compound of formula I]	13 µM	
MI-319		500 fold
